In patent US10457707B2, “Substituted urea depsipeptide analogs as activators of the CLPP endopeptidase” (priority 2015, dated 2019) one finds MIC and IC50 data, which are given here for 3 compounds.

What all share (format): cell-based
The test system of data set [1] is Streptococcus pyogenes, ATCC 700294. Briefly: Minimal inhibitory concentration assay (microbroth dilution). The conditions noted are these: Streptococcus pyogenes, ATCC700294; read-out: Minimal Inhibitory Concentrations S. pyogenes ATCC 700294. In outline:
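Plates with two-fold compound dilution series in broth were incubated overnight, aerobically, at 37° C, following CLSI microdilution guidance.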
For orientation: Dilution methods test growth across graded concentrations, often in twofold steps.

The nature of data set [2]: Cytotoxicity assay (CellTiter-Glo cell viability, 72 hours). The settings on record: African green monkey. In short, it runs like this:
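Viability measured by CellTiter-Glo luminescence after 72-hour compound exposure (serial dilutions, DMSO control) of Vero monolayers seeded at 5000 cells/well in 10% FBS DMEM. IC50 values are the range of two biologically independent experiments, each run in duplicate.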
A general note: Cellular ATP, detected with luciferase, serves as a proxy for viable cell number.

Data set [3] relates to Staphylococcus aureus, ATCC 29213. The experiment in a line: Minimal inhibitory concentration assay (microbroth dilution). The conditions noted are these: ATCC29213, read-out: Minimal Inhibitory Concentrations S. aureus ATCC 29213. In short, it runs like this:
(§1)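 Paired MICs against USA 300 and its ClpP-inactivated counterpart test whether killing runs through ClpP. All strains: two-fold broth dilutions from 200 μM final, ~10^5 cfu/mL inoculum, overnight at 37 °C in air, lowest growth-free concentration read by eye.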

The subject of data set [4] is Staphylococcus aureus, NRS70. The data set is described as above. The settings on record: Staphylococcus aureus, NRS70; read-out: Minimal Inhibitory Concentrations S. aureus NRS70. In short, it runs like this: as §1
Data set [5] has as its system Bacillus subtilis, ATCC 23857. Described as above. The conditions noted are these: Bacillus subtilis, ATCC23857; read-out: Minimal Inhibitory Concentrations B. subtilis ATCC 23857. In short, it runs like this: as §1

In brackets after ≈: the same amount, converted by molar mass. *1 amine or outer side, *2 acyl side, *3 side chain or, on linkers, in order; H or OH if unused. Where a SMILES comes first, the peptide text is derived from it. Bridges are numbered along the chain shown (N, C = ends). [ ]: non-standard residue; d: D form. The star is where a group is joined. Piperazine(2S-CO,4-Me) = CN1CCN[C@H](C(=O)O)C1; Phe(3,5-F2) = N[C@@H](Cc1cc(F)cc(F)c1)C(=O)O; Morpholine(3S-CO) = O=C(O)[C@@H]1COCCN1; NH(4-Cl-2-F-phenyl) = Fc1cc(Cl)ccc1N*; Pro(4R-Me) = C[C@H]1CN[C@H](C(=O)O)C1; Hyp = O=C(O)[C@@H]1C[C@@H](O)CN1; aThr = C[C@H](O)[C@H](N)C(=O)O; Pip = O=C(O)[C@@H]1CCCCN1; X1 = N#Cc1cc(N*)ccc1F; CO = O=C([*:1])[*:2] Bounds are passed on as bounds.

With `C[C@@H]1C[C@H]2C(=O)O[C@@H](C)[C@H](NC(=O)[C@H](Cc3cc(F)cc(F)c3)NC(=O)Nc3ccc(F)c(C#N)c3)C(=O)N3C[C@H](O)C[C@H]3C(=O)N3CCOC[C@H]3C(=O)N[C@@H](C)C(=O)N2C1` [Compound 326, (S)-2-(3-(3-cyano-4-fluorophenyl)ureido)-3-(3,5-difluorophenyl)-N-((6aS,8R,12S,13S,15aS,17R,21S,23aS)-8-hydroxy-13,17,21-trimethyl-6,11,15,20,23-pentaoxooctadecahydro-6H,11H,15H-[1,4]oxazino[3,4-i]dipyrrolo[2,1-c:2′,1′-l][1]oxa[4,7,10,13]tetraazacyclo-hexadecin-12-yl)propanamide] ({X1-CO}-[Phe(3,5-F2)][aThr][Hyp][Morpholine(3S-CO)]A[Pro(4R-Me)]; ester 2-C), the MIC in data set [1] was 1.25 µM (≈ 1.07 µg/mL); in data set [3], 10 µM (≈ 8.55 µg/mL); in data set [4], 2.5 µM (≈ 2.14 µg/mL); in data set [5], 20 µM (≈ 17.1 µg/mL). Further, the IC50 – broadly, the concentration that gives 50% inhibition – at 72 h in data set [2] is > 100 µM.
In the same order, the values of `C[C@@H]1C[C@H]2C(=O)O[C@@H](C)[C@H](NC(=O)[C@H](Cc3cc(F)cc(F)c3)NC(=O)Nc3ccc(Cl)cc3F)C(=O)N3C[C@H](O)C[C@H]3C(=O)N3CCCC[C@H]3C(=O)N[C@@H](C)C(=O)N2C1` [Compound 329, (S)-2-(3-(4-chloro-2-fluorophenyl)ureido)-3-(3,5-difluorophenyl)-N-((2R,6S,8aS,14aS,16R,20S,21S,23aS)-16-hydroxy-2,6,21-trimethyl-5,8,14,19,23-pentaoxooctadecahydro-1H,5H,14H,19H-pyrido[2,1-i]dipyrrolo[2,1-c:2′,1′-l][1]oxa[4,7,10,13]tetraazacyclo-hexadecin-20-yl)propanamide] ({NH(4-Cl-2-F-phenyl)-CO}-[Phe(3,5-F2)][aThr][Hyp][Pip]A[Pro(4R-Me)]; ester 2-C) are 0.078 µM (≈ 0.0673 µg/mL), 0.078 µM (≈ 0.0673 µg/mL), 0.039 µM (≈ 0.0336 µg/mL), 0.039 µM (≈ 0.0336 µg/mL) and 24.5 ± 2.5 µM.
On the same counts, the results for `C[C@@H]1C[C@H]2C(=O)OC[C@H](NC(=O)[C@H](Cc3cc(F)cc(F)c3)NC(=O)Nc3ccc(Cl)cc3F)C(=O)N3CCC[C@H]3C(=O)N3CCN(C)C[C@H]3C(=O)N[C@@H](C)C(=O)N2C1` [Compound 330, (S)-2-(3-(4-chloro-2-fluorophenyl)ureido)-3-(3,5-difluorophenyl)-N-((6aS,12S,15aS,17R,21S,23aS)-2,17,21-trimethyl-6,11,15,20,23-pentaoxooctadecahydro-2H,6H,11H,15H-pyrazino[2,1-i]dipyrrolo[2,1-c:2′,1′-l][1]oxa[4,7,10,13]tetraazacyclohexadecin-12-yl)propanamide] ({NH(4-Cl-2-F-phenyl)-CO}-[Phe(3,5-F2)]SP[Piperazine(2S-CO,4-Me)]A[Pro(4R-Me)]; ester 2-C) are 0.078 µM (≈ 0.0661 µg/mL), 0.078 µM (≈ 0.0661 µg/mL), 0.078 µM (≈ 0.0661 µg/mL), < 0.02 µM and > 50 µM.
